Source: paper PMC6779874, “ACT001, a novel PAI-1 inhibitor, exerts synergistic effects in combination with cisplatin by inhibiting PI3K/AKT pathway in glioma” (Cell Death & Disease, 2019)

Experiments:
[1] = biological target: T1, PAI-1 (plasminogen activator inhibitor-1) (Homo sapiens, UniProt P05121); test: SPR (Biacore […], immobilized PAI-1); also CETSA in cell extract; prodrug that releases MCL; type: binding
T1 construct: gene SERPINE1; Recombinant human PAI-1

[2] = biological target: T1, PAI-1 (plasminogen activator inhibitor-1); test: SPR (Biacore […], immobilized PAI-1); also CETSA/ITDR in cell extract; type: binding

T1 sequence (P05121 24-402): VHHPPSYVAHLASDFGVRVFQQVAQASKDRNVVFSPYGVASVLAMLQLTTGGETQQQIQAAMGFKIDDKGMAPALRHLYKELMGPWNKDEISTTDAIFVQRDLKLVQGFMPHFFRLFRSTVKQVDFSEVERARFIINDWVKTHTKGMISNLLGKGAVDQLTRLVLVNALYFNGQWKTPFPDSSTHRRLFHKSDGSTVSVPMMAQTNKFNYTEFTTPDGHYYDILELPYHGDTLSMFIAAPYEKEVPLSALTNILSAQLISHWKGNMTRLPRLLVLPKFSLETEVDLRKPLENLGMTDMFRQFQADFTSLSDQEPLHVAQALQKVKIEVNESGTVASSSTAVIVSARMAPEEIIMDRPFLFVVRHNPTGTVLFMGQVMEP

## CC1=C2CC[C@@](C)(O)[C@@H]2[C@H]2OC(=O)[C@@H](CN(C)C)[C@@H]2CC1 [ACT001]
[1]
  Kd: 2310 µM

## C=C1C(=O)O[C@H]2[C@H]1CCC(C)=C1CC[C@@](C)(O)[C@@H]12 [MCL]
[2]
  Kd: 10.8 µM
